{
  "source": "patent US20130123618A1",
  "about": "“Imaging Agents” (priority 2008, published 2013)",
  "tested_on": "MIA PaCa-2 Human Pancreas carcinoma cells",
  "assay": "in vitro amino acid uptake in MIA PaCa-2 cells",
  "assay_type": "cell-based",
  "method": "Compounds have been evaluated in vitro for tumor binding specificity (i.e. uptake cells) using a variety of tumor cell lines available in the art, along with reference compounds such as Me-AlB and BCH. Detailed description of these assays can be found in Martarello et al. (2002) Journal of Medicinal Chemistry, 45:2250-2259 and McConathy et al. (2003) Nuclear Medicine and Biology, 30:477-490. […]\nIn the in vitro studies the uptake rate of each amino acid compound is measured in each tumor line, as well as the dominant transport mechanisms of each tumor cell line. After trypsinization, cells are resuspended in serum-free media, then counted on a hemocytometer, with viability assessed through Trypan blue staining. […] The vials are placed in a Cobra-II gamma counter (Packard, Meriden, Conn.), with the activity per cell number determined. […] Saline washes are performed as described above, and the filtered cells' radioactivity determined on the gamma counter. […]\nThe uptake of all compounds were measured in human and rat cancer cell lines and the dominant transport (“A” and “L”) mechanism of each culture were determined. […]",
  "data": [
    {"compound": "N[C@]1(C(=O)O)CCC[C@@H]1[18F]", "note": "(single isomer, unassigned; enantiomer 1) [Enantiomer 1, anti-2-[^18F]FACPC]", "values": [
      {"measurement": "% Dose uptake per 0.5 × 10−6 Cells", "result": 6.8, "unit": "% Dose/0.5 × 10^−6"}
    ]}
  ]
}
